In one data set the test system is edema. In words: Topical anti-inflammatory activity (croton oil ear edema). It counts as in vivo, Male mice of ddY-strain. The following applies: for R=A/B: anti-inflammatory activity ratio (A) divided by thymolytic activity ratio (B); for Anti-inflammatory activity ratio (A): ratio against clobetasol 17-propionate (=1), linear regression parallel test method, edema-repressing rate, topical application to mouse ear with croton oil, 5th hour after application. As for the experimental part: 0.9 % sodium chloride, 0.4 % Tween 80, 0.5 % carboxymethyl cellulose and 0.9 % benzyl alcohol are dissolved or suspended in distilled water, which is used as a suspending medium. The compounds to be tested are dissolved in a mixture of the suspending medium : pyridine : diethyl ether = 1 : 4 : 5 and mixed with equal volume of diethyl ether containing 10 % croton oil and the mixture is used as the test liquid. Commercially available felt having a thickness of 5 mm is cut in 7mm x 7 mm square and adhered to ring tweezers using alkyl-a-cyanoacrylate. The felt is soaked in the test liquid and the liquid is applied to the right ear of the mouse by rubbing it with the felt at a fixed pressure without anesthesia. The left ear is left untreated. At 5th hours after application, mice are killed and both of the ears are cut and weighed. The rate (%) of increase in the weight of right ear against that of left ear is calculated as the edema ratio. Edema ratios obtained on the test compounds are compared with those obtained on control and edema-repressing rate is obtained.

The test system of the next data set is thymus gland. The following applies: rat, in vivo, sc, 11520 min. How it is done:
2) Experiment on thymolytic action
The compounds to be tested are dissolved in a liquid consisting of croton oil : cotton seed oil : ethanol = 1:89:10 and the solution is used for injection.
The rats are anesthesized by inhalation of ether and 20 ml of air are subcutaneously injected into hypodermic organ at the back of the rats using a thin injection needle to form an oval-shaped air cavity. After the rats recovered from anesthesia they are kept on normal food and water. At 8th days after injection, rats are killed by depletion and dissected. The thymus gland is taken out and the wet weight is measured. Thymus weights obtained on the test compounds are divided with those obtained on control, and thymus gland atrophy rate is obtained.
In each of the experiments on anti-inflammatory activity and thymolytic action, clobetasol 17-propionate and betamethasone 17,21-dipropionate are used standard compounds and anti-inflammatory activity ratio and thymolytic activity ratio against clobetasol 17-propionate are calculated using linear regression parallel test method.

We go through 13 compounds from patent EP0136586A2, “Novel corticoid derivatives and process for production thereof” (priority 1983, dated 1985).

Some results are limits rather than exact numbers.

Consider `CCCOC(=O)O[C@]1(C(=O)CCl)[C@@H](C)C[C@H]2[C@@H]3CC(=O)C4=CC(=O)C=C[C@]4(C)[C@@]3(F)[C@@H](O)C[C@@]21C` [Example 6, 21-chloro-9α-fluoro-16β-methyl-1,4-pregnadiene-11β,17α-diol-3,6,20-trione 17a-propyl carbonate], for which, in the data set on edema, the “R=A/B” value is recorded as 3.1 and the “Anti-inflammatory activity ratio (A)” value was found to be 0.74. Moreover, the “Thymolytic activity ratio (B)” value in the data set on thymus gland was found to be 0.24.
For `COC(=O)CCC(=O)O[C@]1(C(=O)CCl)[C@@H](C)C[C@H]2[C@@H]3CC(=O)C4=CC(=O)C=C[C@]4(C)[C@@]3(F)[C@@H](O)C[C@@]21C` [Example 13, 21-chloro-9α-fluoro-16β-methyl-1,4-pregnadiene-11β,17α-diol-3,6,20-trione 17α-(β-methoxycarbonyl propionate)], in the data set on edema, the “R=A/B” value is given as over 100 and the “Anti-inflammatory activity ratio (A)” value came to 1.0. Besides, in the data set with thymus gland, the “Thymolytic activity ratio (B)” value is reported as under 0.01.
For the compound “21-chloro-9α-fluoro-16β-mathyl-1,4-pregnadiene-11β,17α-diol-3,6,20-trione 17α-methyl carbonate [Example 2]”, the “Anti-inflammatory activity ratio (A)” value in the data set with edema came to 3.0. For the same compound, in the data set with thymus gland, the “Thymolytic activity ratio (B)” value is recorded as 0.018.
In the case of `CCC(=O)O[C@]1(C(=O)CCl)[C@@H](C)C[C@H]2[C@@H]3CCC4=CC(=O)C=C[C@]4(C)[C@@]3(F)[C@@H](O)C[C@@]21C` [Clobetasol 17-propionate, clobetasol 17-propionate, reference compound], the “R=A/B” value in the data set with edema is given as 1. Further, in the data set on thymus gland, the “Thymolytic activity ratio (B)” value amounted to 1.
Regarding `COC(=O)CCC(=O)O[C@]1(C(=O)CCl)[C@H](C)C[C@H]2[C@@H]3CCC4=CC(=O)C=C[C@]4(C)[C@@]3(F)[C@@H](O)C[C@@]21C` [Example 14, 21-chloro-9α-fluoro-16α-msthyl-1,4-pregnadiene-11β,17α-diol-3,20-dione 17α-(β-methoxycarbonyl propionate)], in the data set with edema, the “R=A/B” value is over 20 and the “Anti-inflammatory activity ratio (A)” value is 0.2. Besides, the “Thymolytic activity ratio (B)” value in the data set on thymus gland is under 0.01.
Consider `CCOC(=O)CCCC(=O)O[C@]1(C(=O)CCl)[C@@H](C)C[C@H]2[C@@H]3CCC4=CC(=O)C=C[C@]4(C)[C@@]3(F)[C@@H](O)C[C@@]21C` [Example 15, 21-chloro-9α-fluoro-16β-methyl-1,4-pregnadiene-11β,17α-diol-3,20-dione 17a-(y-ethoxycarbonyl butyrate)], for which, in the data set with edema, the “R=A/B” value came out at 57 and the “Anti-inflammatory activity ratio (A)” value was found to be 0.68. In addition, the “Thymolytic activity ratio (B)” value with thymus gland is given as 0.012.
On to `CCOC(=O)CCC(=O)O[C@]1(C(=O)CCl)[C@@H](C)C[C@H]2[C@@H]3CCC4=CC(=O)C=C[C@]4(C)[C@@]3(F)[C@@H](O)C[C@@]21C` [Example 17, 21-chloro-9α-fluoro-16β-methyl-1,4-pregnadien-11β,17α-diol-3,20-dione 17α-(β-ethoxycarbonyl propionate)], for which, in the data set on edema, the “R=A/B” value is 80 and the “Anti-inflammatory activity ratio (A)” value stood at 0.56. In addition, the “Thymolytic activity ratio (B)” value in the data set on thymus gland came to 0.007.
In the case of “21-chloro-9α-fluoro-16β-methyl-1,4-pregnadiene-11β,17α-diol-3,6,20-trione 17a-ethyl carbonate [Example 4]”, the “Anti-inflammatory activity ratio (A)” value in the data set on edema was 1.3. In the data set with thymus gland, the “Thymolytic activity ratio (B)” value amounted to 0.048.
For the compound `CCC(=O)OCC(=O)[C@@]1(OC(=O)CC)[C@@H](C)C[C@H]2[C@@H]3CCC4=CC(=O)C=C[C@]4(C)[C@@]3(F)[C@@H](O)C[C@@]21C` [Betamethasone 17,21-dipropionate, betamethasone 17,21-dipropionate, reference compound], in the data set on edema, the “R=A/B” value is given as 2.7 and the “Anti-inflammatory activity ratio (A)” value is 0.080. Also, the “Thymolytic activity ratio (B)” value in the data set on thymus gland came to 0.030.
For `CCC(=O)O[C@]1(C(=O)CCl)[C@@H](C)C[C@H]2[C@@H]3CC(=O)C4=CC(=O)C=C[C@]4(C)[C@@]3(F)[C@@H](O)C[C@@]21C` [Comparative Example 1, 21-chloro-9α-fluoro-16β-methyl-1,4-pregnadiene-11S,17a-diol-3,6,20-trione 17a-propionate, reference compound], in that order: 1.8, 0.53 and 0.29.
In the case of `COC(=O)CCC(=O)O[C@]1(C(=O)CCl)[C@@H](C)C[C@H]2[C@@H]3CCC4=CC(=O)C=C[C@]4(C)[C@@]3(F)[C@@H](O)C[C@@]21C` [Example 12, 21-chloro-9α-fluoro-16β-methyl-1,4-pregnadiene-11β,17α-diol-3,20-dione 17a-(6-methoxycarbonyl propionate)], in the data set with edema, the “R=A/B” value was found to be 18 and the “Anti-inflammatory activity ratio (A)” value is 1.3. Besides, the “Thymolytic activity ratio (B)” value with thymus gland was determined as 0.072.
With “21-chloro-9a-fluoro-16a-methyl-l,4-pregnadiene-11β,17α-diol-3,6,20-trione 17a-methyl carbonate [Example 8]”, in the data set on edema, the “Anti-inflammatory activity ratio (A)” value is 0.51.
In the case of `COC(=O)O[C@]1(C(=O)CCl)[C@@H](C)C[C@H]2[C@@H]3CCC4=CC(=O)C=C[C@]4(C)[C@@]3(F)[C@@H](O)C[C@@]21C` [Comparative Example 2, 21-chloro-9α-fluoro-16β-methyl-1,4-pregnadiene-11β,17α-diol-3,20-dione 17a-methyl carbonate, reference compound], in the data set on edema, the “R=A/B” value amounted to 0.8 and the “Anti-inflammatory activity ratio (A)” value turned out to be 0.96. The “Thymolytic activity ratio (B)” value with thymus gland turned out to be 1.2.
